From patent US20240033236A1, “METHODS OF TREATING HERPES VIRAL INFECTION WITH 4-PHENYLBUTYRATE (PBA) OR A PHARMACEUTICALLY ACCEPTABLE SALT THEREOF” (THE BOARD OF TRUSTEES OF THE UNIVERSITY OF ILLINOIS, priority 2020, published 2024)
Entries after “also recorded” stand apart in the source; their conditions may differ.

Key:
HSV-1 = assay: Plaque assay of HSV-1 infected HCEs treated with ER stress modulators; conditions: 0.1 MOI HSV-1 K26RFP, 24 hpi, tunicamycin, thapsigargin, Brefeldin-A 1 μM, salubrinal 75 μM, PBA 10 mM
Method: Infected cells suspended in 5004 of Opti-MEM prior to sonication using a probe sonication system at 70% amplitude for 30 seconds. Sonicated cell lysates or ocular/vaginal swabs were used as inoculants for a plaque assay to determine the total amount of infectious virus. In a typical experiment, Vero cells were plated at a seating density of 5×10^4 per well in a 24 well plate overnight. Upon confluency, the cell monolayers were washed with PBS and infected samples were overlaid for a period of 2 h at multiple dilutions. The cells were then washed twice with PBS prior to the addition of DMEM mixed with 0.5% methylcellulose. The plates were incubated for 72 h at 37° C. and 5% CO2 before they were fixed with methanol and stained with crystal violet to determine the extent of plaque formation.
HCEs were infected with 0.1 MOI HSV-1 K26RFP and treated with tunicamycin (1 μM), thapsigargin (1 μM), Brefeldin-A (1 μM), salubrinal (75 μM) or PBA (10 mM). At 24 hpi, cells were imaged for the presence of fluorescent HSV-1 and cells were lysed and used as inoculum on Vero cells to assess viral titer via plaque assay (FIGS. 3A and 3B). […] HCEs infected and treated with PBA with various concentrations were collected 24 hpi and the lysates from these cells were used as inoculum on Vero cells to determine a concentration dependent viral inhibition via a plaque assay (FIG. 3E).

HSV = assay: Viral protein synthesis in HSV infected cells (immunoblotting); conditions: in vitro
Method: Cells were scraped and incubated with 1004 of Radioimmunoprecipitation assay (RIPA) buffer with protease phosphatase inhibitor cocktail (Halt™, 78440) for a period of 30 minutes on ice. Whole cell protein extracts (supernatant) were collected by centrifuging the mixture at 13,500 rpm on a bench top refrigerated (4° C.) centrifuge for 15 minutes. Protein samples were then denatured in NuPAGE LDS Sample Buffer (Invitrogen, NP00007) and 6-mercaptoethanol by heating them to 80° C. for 10 min. The denatured protein samples were allowed to cool and equal amounts of protein were added to 4-12% SDS-PAGE loading gels and run at a constant speed of 70V for 3 h. The protein from the gel was then transferred to a nitrocellulose membrane using an iBlot 2 dry transfer machine (Thermofisher Scientific, USA). Nitrocellulose membrane was blocked in 5% nonfat milk/BSA in tris buffer saline (TBS) and 0.1% tween 20 (TBST) for 1 h at room temperature. After the blocking step, membranes were incubated with primary antibody at dilutions of 1:1000 overnight at 4° C. The following day the blots were washed multiple times with TBST before the addition of horse radish peroxidase conjugated secondary IgG antibody at dilutions of 1:10,000 at room temperature. […] The density of the bands was quantified using ImageQuant TL image analysis software (version: 7). GAPDH was measured as a loading control.

HSV-1 McKrae = assay: Murine HSV-1 encephalitis model (intranasal infection); format: in vivo; conditions: BALB/C mice, intranasal HSV-1 McKrae, compared with untreated
[1] = in vivo, iv; cited from earlier work
HSV-1 infected HCEs = assay: Survival and syncytia of HSV-1 infected HCEs in cell culture; format: cell-based, human
[2] = in vivo; cited from earlier work

## C[C@H]1CCC/C=C/[C@@H]2C[C@H](O)C[C@H]2[C@H](O)/C=C/C(=O)O1 [BA, Brefeldin-A]
HSV-1
  viral replication / viral infection in HSV-1 infected HCEs: inhibited viral replication

## O=C([O-])CCCc1ccccc1.[Na+] [NaPBA, sodium 4-phenylbutanoate]
HSV
  viral protein synthesis: suppressed viral protein synthesis

## Nc1nc2c(ncn2COCCO)c(=O)[nH]1 [ACV, acyclovir]
HSV-1 McKrae
  appearance and behavior of infected mice: look healthier with no behavioral changes
[1]
  renal toxicity: renal toxicity including acute kidney injury

## O=C(/C=C/c1ccccc1)NC(NC(=S)Nc1cccc2cccnc12)C(Cl)(Cl)Cl (stereo not drawn) [salubrinal]
HSV-1 infected HCEs
  survival of the HSV-1 infected cell: form large syncytia and survive longer in cell culture; also recorded: increased survival of the cell
HSV-1
  viral replication / viral infection in HSV-1 infected HCEs: increased viral replication

## Tunicamycin [TM]
HSV-1
  viral replication / viral infection in HSV-1 infected HCEs: inhibited viral replication

## O=c1[nH]c(=O)n([C@H]2C[C@H](O)[C@@H](CO)O2)cc1C(F)(F)F [TFT, trifluridine]
[2]
  corneal toxicity: corneal toxicity including inflammation, dryness and pain

## C/C=C(/C)C(=O)O[C@H]1C(C)=C2[C@H]([C@@H]1OC(=O)CCCCCCC)[C@@](C)(OC(C)=O)C[C@H](OC(=O)CCC)[C@@]1(O)[C@H]2OC(=O)[C@@]1(C)O [TG, Thapsigargin]
HSV-1
  viral replication / viral infection in HSV-1 infected HCEs: inhibited viral replication
